What all share (test): biochemical
What all share (design): Upstate KinaseProfiler in vitro kinase activity assay, per cent of DMSO control
What all share (conditions): read-out: Activity (% of Control)

For assay [1], the target named is T1, cKit(h) (Homo sapiens, UniProt P10721).
T1 construct: gene KIT
The method in brief: (§1)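 Profiling done with Upstate KinaseProfiler service across 100 kinases, resveratrol tested at 20 μM; activity expressed relative to control.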

The target in assay [2] is T2, SGK(h) (Homo sapiens, UniProt O00141).
T2 construct: gene SGK1
The method in brief: as §1

The target of assay [3] is LIMK1(h) (Homo sapiens, UniProt P53667). A digest of the protocol: as §1
For assay [4], the target named is T3, PKBγ(h) (Homo sapiens, UniProt Q9Y243).
T3 construct: gene AKT3
A digest of the protocol:
as §1

The target in assay [5] is T4, cSRC(h) (Homo sapiens, UniProt P12931).
T4 construct: gene SRC
T4 sequence (P12931 whole entry): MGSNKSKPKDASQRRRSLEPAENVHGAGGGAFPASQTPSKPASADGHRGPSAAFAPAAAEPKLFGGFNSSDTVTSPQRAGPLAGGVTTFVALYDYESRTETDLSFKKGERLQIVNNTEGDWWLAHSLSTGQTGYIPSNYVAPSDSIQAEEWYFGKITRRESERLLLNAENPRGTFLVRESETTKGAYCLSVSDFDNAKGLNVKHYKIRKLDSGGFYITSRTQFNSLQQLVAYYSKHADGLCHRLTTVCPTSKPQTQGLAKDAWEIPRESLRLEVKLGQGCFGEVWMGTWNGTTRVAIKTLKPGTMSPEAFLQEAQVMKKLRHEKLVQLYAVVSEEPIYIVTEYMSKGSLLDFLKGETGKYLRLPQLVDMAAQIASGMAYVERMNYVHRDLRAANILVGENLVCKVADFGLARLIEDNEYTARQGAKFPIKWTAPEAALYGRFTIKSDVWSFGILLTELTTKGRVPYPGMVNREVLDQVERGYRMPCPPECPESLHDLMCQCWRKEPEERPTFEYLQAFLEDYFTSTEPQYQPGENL
A digest of the protocol:
as §1

The target of assay [6] is Plk3(h) (Homo sapiens, UniProt Q9H4B4). A digest of the protocol: as §1
Chain of Plk3(h) (Q9H4B4 whole entry): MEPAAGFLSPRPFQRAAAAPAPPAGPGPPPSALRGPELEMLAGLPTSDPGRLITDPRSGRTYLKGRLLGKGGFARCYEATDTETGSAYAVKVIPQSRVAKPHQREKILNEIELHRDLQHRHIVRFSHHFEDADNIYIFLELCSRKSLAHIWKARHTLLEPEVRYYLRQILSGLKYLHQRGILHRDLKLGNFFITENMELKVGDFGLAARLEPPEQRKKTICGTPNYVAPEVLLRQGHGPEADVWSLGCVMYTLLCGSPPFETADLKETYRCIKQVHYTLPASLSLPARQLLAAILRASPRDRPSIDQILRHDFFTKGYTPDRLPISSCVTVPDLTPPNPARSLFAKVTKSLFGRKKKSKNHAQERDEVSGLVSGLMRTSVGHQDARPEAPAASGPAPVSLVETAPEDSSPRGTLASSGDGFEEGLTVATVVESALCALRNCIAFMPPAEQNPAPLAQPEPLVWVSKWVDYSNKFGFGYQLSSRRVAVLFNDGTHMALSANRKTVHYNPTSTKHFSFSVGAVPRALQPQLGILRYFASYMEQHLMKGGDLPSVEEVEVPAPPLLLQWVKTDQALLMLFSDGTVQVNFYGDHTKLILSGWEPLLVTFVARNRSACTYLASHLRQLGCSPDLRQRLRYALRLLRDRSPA
Assay [7] deals with T5, SAPK4(h) (Homo sapiens, UniProt O15264).
T5 construct: gene MAPK13
T5 sequence (O15264 whole entry): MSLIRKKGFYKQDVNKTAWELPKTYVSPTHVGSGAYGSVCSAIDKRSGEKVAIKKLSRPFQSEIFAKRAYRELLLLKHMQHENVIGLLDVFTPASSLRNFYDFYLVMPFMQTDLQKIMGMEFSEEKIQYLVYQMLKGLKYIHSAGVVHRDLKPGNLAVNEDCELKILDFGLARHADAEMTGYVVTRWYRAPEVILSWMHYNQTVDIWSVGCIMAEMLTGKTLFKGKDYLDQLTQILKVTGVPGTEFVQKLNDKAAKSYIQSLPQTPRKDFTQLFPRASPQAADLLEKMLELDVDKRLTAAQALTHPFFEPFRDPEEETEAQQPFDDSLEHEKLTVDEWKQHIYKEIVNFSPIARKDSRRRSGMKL
A digest of the protocol: as §1

In assay [8] the target is T6, PDK1(h) (Homo sapiens, UniProt O15530).
T6 construct: gene PDPK1
A digest of the protocol: as §1

The target of assay [9] is NLK (Homo sapiens, UniProt Q9UBE8). The method in brief: as §1
The target in assay [10] is T7, Rsk2(h) (Homo sapiens, UniProt P51812).
T7 construct: gene RPS6KA3
A digest of the protocol:
as §1

Assay [11] addresses T8, IKKß(h) (Homo sapiens, UniProt O14920).
T8 construct: gene IKBKB
The method in brief:
as §1

Assay [12] concerns the target NEK2(h) (Homo sapiens, UniProt P51955). The method in brief:
as §1

Assay [13] concerns the target T9, Ros(h) (Homo sapiens, UniProt P08922).
T9 construct: gene ROS1
The method in brief: as §1

Assay [14] addresses PAK3(h) (Homo sapiens, UniProt O75914). The method in brief:
as §1

The target of assay [15] is CDK6/cyclinD3(h) (Homo sapiens, UniProt Q00534). The method in brief: as §1
Assay [16] concerns the target T10, Rsk1(h) (Homo sapiens, UniProt Q15418).
T10 construct: gene RPS6KA1
A digest of the protocol: as §1

Assay [17] has as its target T11, SAPK3(h) (Homo sapiens, UniProt P53778).
T11 construct: gene MAPK12
The method in brief:
as §1

The target in assay [18] is T12, PKCζ(h) (Homo sapiens, UniProt Q05513).
T12 construct: gene PRKCZ
T12 sequence (Q05513 whole entry): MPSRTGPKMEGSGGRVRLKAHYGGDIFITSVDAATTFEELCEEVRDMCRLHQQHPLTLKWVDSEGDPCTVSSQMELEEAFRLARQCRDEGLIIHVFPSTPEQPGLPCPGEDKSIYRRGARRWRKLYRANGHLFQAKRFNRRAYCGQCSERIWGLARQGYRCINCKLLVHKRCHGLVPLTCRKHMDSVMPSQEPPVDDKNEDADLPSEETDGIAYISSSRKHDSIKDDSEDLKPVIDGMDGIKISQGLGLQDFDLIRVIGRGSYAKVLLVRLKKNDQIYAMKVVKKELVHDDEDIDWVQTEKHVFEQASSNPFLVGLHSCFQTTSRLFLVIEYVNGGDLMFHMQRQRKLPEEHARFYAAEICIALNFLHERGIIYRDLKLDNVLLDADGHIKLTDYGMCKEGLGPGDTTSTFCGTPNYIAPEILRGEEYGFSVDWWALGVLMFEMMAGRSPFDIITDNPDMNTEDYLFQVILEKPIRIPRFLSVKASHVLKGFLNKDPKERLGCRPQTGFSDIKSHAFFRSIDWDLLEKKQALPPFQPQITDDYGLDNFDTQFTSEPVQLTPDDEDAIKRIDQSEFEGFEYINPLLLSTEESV
The method in brief: as §1

Among the data in PMC2806030, “Inhibition of mammalian S6 kinase by resveratrol suppresses autophagy” (Aging (Albany NY), 2009) are remaining activity values, retold here.

T11 sequence (P53778 whole entry): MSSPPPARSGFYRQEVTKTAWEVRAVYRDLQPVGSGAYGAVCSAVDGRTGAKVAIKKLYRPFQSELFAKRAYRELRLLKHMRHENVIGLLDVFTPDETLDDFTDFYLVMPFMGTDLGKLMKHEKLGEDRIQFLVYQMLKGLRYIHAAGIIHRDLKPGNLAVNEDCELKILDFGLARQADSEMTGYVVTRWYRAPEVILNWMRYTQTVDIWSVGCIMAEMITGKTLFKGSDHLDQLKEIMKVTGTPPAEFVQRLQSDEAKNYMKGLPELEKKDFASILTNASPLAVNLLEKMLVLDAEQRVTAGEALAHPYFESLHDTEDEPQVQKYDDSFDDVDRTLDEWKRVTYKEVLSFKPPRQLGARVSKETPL
Chain of NEK2(h) (P51955 whole entry): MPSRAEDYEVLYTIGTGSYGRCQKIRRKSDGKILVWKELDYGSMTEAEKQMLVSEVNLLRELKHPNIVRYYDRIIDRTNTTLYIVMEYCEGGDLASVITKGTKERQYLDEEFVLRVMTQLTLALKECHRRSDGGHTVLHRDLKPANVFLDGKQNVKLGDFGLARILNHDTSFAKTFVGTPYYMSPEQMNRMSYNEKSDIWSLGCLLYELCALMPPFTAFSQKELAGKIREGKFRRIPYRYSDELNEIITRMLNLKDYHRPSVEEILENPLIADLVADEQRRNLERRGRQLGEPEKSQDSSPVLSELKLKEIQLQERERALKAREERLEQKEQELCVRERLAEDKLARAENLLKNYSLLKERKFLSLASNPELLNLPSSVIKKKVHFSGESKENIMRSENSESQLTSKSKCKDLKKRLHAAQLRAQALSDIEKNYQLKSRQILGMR
T10 sequence (Q15418 whole entry): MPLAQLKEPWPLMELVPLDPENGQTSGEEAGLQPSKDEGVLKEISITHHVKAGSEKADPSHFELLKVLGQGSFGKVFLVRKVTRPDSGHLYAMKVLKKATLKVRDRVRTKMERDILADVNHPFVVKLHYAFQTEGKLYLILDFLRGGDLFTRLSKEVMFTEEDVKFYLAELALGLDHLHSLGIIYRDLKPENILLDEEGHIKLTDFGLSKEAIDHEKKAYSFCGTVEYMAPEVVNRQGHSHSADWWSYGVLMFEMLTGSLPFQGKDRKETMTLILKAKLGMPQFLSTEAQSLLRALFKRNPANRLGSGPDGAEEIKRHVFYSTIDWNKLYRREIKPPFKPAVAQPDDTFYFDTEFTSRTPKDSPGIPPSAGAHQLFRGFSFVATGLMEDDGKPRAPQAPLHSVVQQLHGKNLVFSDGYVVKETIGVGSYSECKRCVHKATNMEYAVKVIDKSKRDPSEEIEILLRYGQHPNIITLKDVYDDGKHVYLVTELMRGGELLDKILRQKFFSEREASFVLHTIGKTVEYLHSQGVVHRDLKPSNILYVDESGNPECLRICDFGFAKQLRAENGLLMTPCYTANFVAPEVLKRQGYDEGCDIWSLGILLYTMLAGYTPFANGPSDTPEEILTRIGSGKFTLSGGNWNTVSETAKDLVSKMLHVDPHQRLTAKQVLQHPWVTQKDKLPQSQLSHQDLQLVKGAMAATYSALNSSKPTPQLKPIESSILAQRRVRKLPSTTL
Chain of PAK3(h) (O75914 whole entry): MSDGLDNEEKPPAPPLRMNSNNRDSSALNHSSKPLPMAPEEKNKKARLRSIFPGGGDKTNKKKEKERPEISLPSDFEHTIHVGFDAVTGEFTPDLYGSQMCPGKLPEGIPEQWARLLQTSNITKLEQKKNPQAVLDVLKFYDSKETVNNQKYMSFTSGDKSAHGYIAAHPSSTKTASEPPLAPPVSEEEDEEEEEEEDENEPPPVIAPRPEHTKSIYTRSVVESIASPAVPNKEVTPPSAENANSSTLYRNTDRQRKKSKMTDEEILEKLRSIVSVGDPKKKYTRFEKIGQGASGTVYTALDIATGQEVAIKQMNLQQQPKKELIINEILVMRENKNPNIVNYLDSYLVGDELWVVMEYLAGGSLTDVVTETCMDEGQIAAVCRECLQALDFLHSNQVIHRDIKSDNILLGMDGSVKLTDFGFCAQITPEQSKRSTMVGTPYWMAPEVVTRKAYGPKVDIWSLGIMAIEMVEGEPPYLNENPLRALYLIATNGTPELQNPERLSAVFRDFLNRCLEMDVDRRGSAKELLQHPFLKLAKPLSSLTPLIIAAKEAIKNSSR
T8 sequence (O14920 whole entry): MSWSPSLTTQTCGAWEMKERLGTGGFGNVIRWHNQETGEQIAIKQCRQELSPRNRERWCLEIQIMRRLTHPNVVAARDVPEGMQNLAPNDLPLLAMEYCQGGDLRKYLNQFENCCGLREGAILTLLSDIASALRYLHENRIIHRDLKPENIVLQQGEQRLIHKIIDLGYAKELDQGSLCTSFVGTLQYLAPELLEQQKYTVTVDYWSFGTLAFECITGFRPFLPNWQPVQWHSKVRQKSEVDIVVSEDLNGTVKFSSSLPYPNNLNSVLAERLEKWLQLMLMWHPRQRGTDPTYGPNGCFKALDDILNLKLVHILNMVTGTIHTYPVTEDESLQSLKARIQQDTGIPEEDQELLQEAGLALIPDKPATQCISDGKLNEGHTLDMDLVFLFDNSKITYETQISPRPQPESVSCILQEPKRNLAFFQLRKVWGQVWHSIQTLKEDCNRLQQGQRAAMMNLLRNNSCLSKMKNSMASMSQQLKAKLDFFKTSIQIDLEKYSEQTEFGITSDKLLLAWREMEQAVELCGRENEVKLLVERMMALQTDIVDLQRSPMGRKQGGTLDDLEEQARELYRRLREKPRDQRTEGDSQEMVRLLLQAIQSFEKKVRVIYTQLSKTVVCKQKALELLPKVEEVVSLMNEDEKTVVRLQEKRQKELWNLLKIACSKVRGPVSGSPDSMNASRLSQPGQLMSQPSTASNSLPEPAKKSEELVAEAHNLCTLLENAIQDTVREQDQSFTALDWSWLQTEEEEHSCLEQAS

With `Oc1ccc(/C=C/c2cc(O)cc(O)c2)cc1` [Res, resveratrol], the remaining activity at 20 µM came to 68% in [1]; 86 ± 13% in [2]; 84 ± 4% in assay [3]; 89 ± 4% in assay [4]; 61 ± 1% in [5]; 95 ± 9% in [6]. Also, the remaining activity at 20 µM in [7] is 92 ± 4%; in assay [8] it was 108 ± 7%; in assay [9] it was 30 ± 2%; in assay [10] it was 32%; in [11], 116 ± 2%; in [12], 102 ± 4%. Besides, the remaining activity at 20 µM was determined as 102 ± 4% in assay [13]; 46% in [14]; 55 ± 2% in assay [15]; 70 ± 1% in assay [16]; 110 ± 5% in assay [17]; 89% in assay [18].
